Measured values reported in patent US12269831B2, “Modulators of cystic fibrosis transmembrane conductance regulator” (Vertex Pharmaceuticals Incorporated, priority 2020, dated 2025).
Like-named read-outs stand apart in the source and are kept apart here.

Conditions: rcm bond, 14-membered ring, DCE

CC(C)(C)OC(=O)N(C(=O)OC(C)(C)C)c1cc(C(F)(F)F)c2nc1-c1nnc(o1)[C@@](OCc1ccccc1)(C(F)(F)F)CCC=CC[C@H](COCc1ccccc1)O2 (mixture of isomers)
ring closure, isolated yield (from C=CCC[C@@](OCc1ccccc1)(c1nnc(-c2nc(O[C@H](CC=C)COCc3ccccc3)c(C(F)(F)F)cc2N(C(=O)OC(C)(C)C)C(=O)OC(C)(C)C)o1)C(F)(F)F, Zhan-1B, 3.72 mM, 60.0 °C, 2.5 h): 46%

CC(C)(C)OC(=O)Nc1cc(C(F)(F)F)c2nc1-c1nnc(o1)C(OCc1ccccc1)(C(F)(F)F)CC=CCc1ccccc1O2 (mixture of isomers)
ring closure, isolated yield (from C=CCc1ccccc1Oc1nc(-c2nnc(C(CC=C)(OCc3ccccc3)C(F)(F)F)o2)c(NC(=O)OC(C)(C)C)cc1C(F)(F)F, Grubbs II, 5.12 mM, 70.0 °C, 21.0 h): 62%

C[C@@H]1CC=CCC[C@](OCc2ccccc2)(C(F)(F)F)C2=NN=C(O2)c2nc(c(C(F)F)cc2NC(=O)OC(C)(C)C)O1 (mixture of isomers)
ring closure, isolated yield (from C=CCC[C@@](OCc1ccccc1)(c1nnc(-c2nc(O[C@H](C)CC=C)c(C(F)F)cc2NC(=O)OC(C)(C)C)o1)C(F)(F)F, Zhan-1B, 3.0 mM, 60.0 °C, 2.0 h): 26%

C[C@@H]1CC=CCc2cn(Cc3ccccc3)nc2C2=NN=C(O2)c2nc(c(C(F)(F)F)cc2NC(=O)OC(C)(C)C)O1 (mixture of isomers)
ring closure, isolated yield (from C=CCc1cn(Cc2ccccc2)nc1-c1nnc(-c2nc(O[C@H](C)CC=C)c(C(F)(F)F)cc2NC(=O)OC(C)(C)C)o1, Zhan-1B, 2.9 mM, 70.0 °C, 2.0 h): 37%
